Measured values from US9302999B2, “Substituted triazoles as herbicides” (E. I. DU PONT DE NEMOURS AND COMPANY, priority 2012, dated 2016).

Columns and labels:
Assay type in all cases: in vivo
[1] = test system: barnyardgrass (Echinochloa crus-galli); test: Test A pre-/postemergence: barnyardgrass; conditions: for Barnyardgrass plant response rating: Postemergence; for Plant response rating, Barnyardgrass: Preemergence
How it was run: (§1)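 Visual 0–100 injury ratings (0 no effect, 100 complete control) taken about ten days after treatment, relative to untreated controls. Preemergence treatment was a directed soil spray; postemergence plants were 2–10 cm tall at one- to two-leaf stage. Soil: loam/sand blend.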

[2] = test system: crabgrass, large (large crabgrass, Digitaria sanguinalis); test: Test A pre-/postemergence: crabgrass, large; conditions: for Crabgrass, Large plant response rating: Postemergence; for Plant response rating, Crabgrass, Large: Preemergence
How it was run: as §1

[3] = test system: foxtail, giant (giant foxtail, Setaria faberii); test: Test A pre-/postemergence: foxtail, giant; conditions: for Foxtail, Giant plant response rating: Postemergence; for Plant response rating, Foxtail, Giant: Preemergence
How it was run: as §1

[4] = test system: morningglory (Ipomoea spp.); test: Test A pre-/postemergence: morningglory; conditions: for Morningglory plant response rating: Postemergence; for Plant response rating, Morningglory: Preemergence
How it was run: as §1

[5] = test system: pigweed (Amaranthus retroflexus); test: Test A pre-/postemergence: pigweed; conditions: for Pigweed plant response rating: Postemergence; for Plant response rating, Pigweed: Preemergence
How it was run: as §1

[6] = test system: velvetleaf (Abutilon theophrasti); test: Test A pre-/postemergence: velvetleaf; conditions: for Velvetleaf plant response rating: Postemergence; for Plant response rating, Velvetleaf: Preemergence
How it was run: as §1

[7] = test system: wheat (Triticum aestivum); test: Test A pre-/postemergence: wheat; conditions: for Wheat plant response rating: Postemergence; for Plant response rating, Wheat: Preemergence
How it was run: as §1

[8] = test system: corn (Zea mays); test: Test A pre-/postemergence: corn; conditions: for Corn plant response rating: Postemergence; for Plant response rating, Corn: Preemergence
How it was run: as §1

[9] = test system: rice (Oryza sativa); test: Test C flooded paddy test: rice; conditions: scale 0 to 100 (0 no effect, 100 complete control)
Excerpt: (§2) Plant species in the flooded paddy test consisted of rice (Oryza sativa), sedge, umbrella (small-flower umbrella sedge, Cyperus difformis), ducksalad (Heteranthera limosa) and barnyardgrass (Echinochloa crus-galli) grown to the 2-leaf stage for testing. At time of treatment, test pots were flooded to 3 cm above the soil surface, treated by application of test compounds directly to the paddy water, and then maintained at that water depth for the duration of the test.
(§3) Treated plants and controls were maintained in a greenhouse for 13 to 15 days, after which time all species were compared to controls and visually evaluated. Plant response ratings, summarized in Table C, are based on a scale of 0 to 100 where 0 is no effect and 100 is complete control. A dash (-) response means no test result.

[10] = test system: sedge, umbrella (small-flower umbrella sedge, Cyperus difformis); test: Test C flooded paddy test: sedge, umbrella; conditions: scale 0 to 100 (0 no effect, 100 complete control)
Excerpt: as §2, §3

[11] = test system: ducksalad (Heteranthera limosa); test: Test C flooded paddy test: ducksalad; conditions: scale 0 to 100 (0 no effect, 100 complete control)
Excerpt: as §2, §3

[12] = test system: barnyardgrass (Echinochloa crus-galli); test: Test C flooded paddy test: barnyardgrass; conditions: scale 0 to 100 (0 no effect, 100 complete control)
Excerpt: as §2, §3

[13] = 125 g ai/ha, 0 to 100 scale, 0 is no effect, 100 is complete control
[14] = 500 g ai/ha, visual rating on 0 to 100 scale (0 no effect, 100 complete control), approximately ten days
[15] = 125 g ai/ha, 0 to 100 scale (0 no effect, 100 complete control)
[16] = 500 g ai/ha, 0 to 100 scale, 0 is no effect, 100 is complete control
[17] = Flood (flooded paddy test), 62 g ai/ha, visual rating after 13 to 15 days
[18] = Flood (flooded paddy test), 250 g ai/ha, visual rating after 13 to 15 days
[19] = Flood (flooded paddy test), 125 g ai/ha, visual rating after 13 to 15 days

Cc1nn(-c2ccc(C(F)(F)F)cc2)nc1Cn1c(Cl)nc(C(F)(F)F)c1Cl [Compound 11]
20: Pigweed plant response rating [5, 14]
0: Barnyardgrass plant response rating [1, 13] | Barnyardgrass plant response rating [1, 14] | Plant response rating, Barnyardgrass [1, 15] | Plant response rating, Barnyardgrass [1, 16] | Crabgrass, Large plant response rating [2, 13] | Crabgrass, Large plant response rating [2, 14] | Plant response rating, Crabgrass, Large [2, 15] | Plant response rating, Crabgrass, Large [2, 16] | Foxtail, Giant plant response rating [3, 13] | Foxtail, Giant plant response rating [3, 14] | Plant response rating, Foxtail, Giant [3, 15] | Plant response rating, Foxtail, Giant [3, 16] | Morningglory plant response rating [4, 13] | Morningglory plant response rating [4, 14] | Plant response rating, Morningglory [4, 15] | Plant response rating, Morningglory [4, 16] | Pigweed plant response rating [5, 13] | Plant response rating, Pigweed [5, 15] | Plant response rating, Pigweed [5, 16] | Velvetleaf plant response rating [6, 13] | Velvetleaf plant response rating [6, 14] | Plant response rating, Velvetleaf [6, 15] | Plant response rating, Velvetleaf [6, 16] | Wheat plant response rating [7, 13] | Wheat plant response rating [7, 14] | Plant response rating, Wheat [7, 15] | Plant response rating, Wheat [7, 16] | Corn plant response rating [8, 13] | Corn plant response rating [8, 14] | Plant response rating, Corn [8, 15] | Plant response rating, Corn [8, 16] | Plant response rating, Rice [9, 17] | Plant response rating, Rice [9, 18] | Plant response rating, Sedge, Umbrella [10, 17] | Plant response rating, Sedge, Umbrella [10, 18] | Plant response rating, Ducksalad [11, 17] | Plant response rating, Ducksalad [11, 18] | Plant response rating, Barnyardgrass [12, 17] | Plant response rating, Barnyardgrass [12, 18]

Cc1nn(-c2ccc(C(F)(F)F)cc2)nc1Cn1cnc(C(F)(F)F)c1Cl [Compound 13]
0: Barnyardgrass plant response rating [1, 13] | Barnyardgrass plant response rating [1, 14] | Plant response rating, Barnyardgrass [1, 15] | Plant response rating, Barnyardgrass [1, 16] | Crabgrass, Large plant response rating [2, 13] | Crabgrass, Large plant response rating [2, 14] | Plant response rating, Crabgrass, Large [2, 15] | Plant response rating, Crabgrass, Large [2, 16] | Foxtail, Giant plant response rating [3, 13] | Plant response rating, Foxtail, Giant [3, 15] | Plant response rating, Foxtail, Giant [3, 16] | Plant response rating, Morningglory [4, 15] | Plant response rating, Morningglory [4, 16] | Pigweed plant response rating [5, 13] | Pigweed plant response rating [5, 14] | Plant response rating, Pigweed [5, 15] | Plant response rating, Pigweed [5, 16] | Velvetleaf plant response rating [6, 13] | Velvetleaf plant response rating [6, 14] | Plant response rating, Velvetleaf [6, 15] | Plant response rating, Velvetleaf [6, 16] | Wheat plant response rating [7, 13] | Wheat plant response rating [7, 14] | Plant response rating, Wheat [7, 15] | Plant response rating, Wheat [7, 16] | Corn plant response rating [8, 13] | Corn plant response rating [8, 14] | Plant response rating, Corn [8, 15] | Plant response rating, Corn [8, 16] | Plant response rating, Rice [9, 17] | Plant response rating, Rice [9, 18] | Plant response rating, Sedge, Umbrella [10, 17] | Plant response rating, Sedge, Umbrella [10, 18] | Plant response rating, Ducksalad [11, 17] | Plant response rating, Ducksalad [11, 18] | Plant response rating, Barnyardgrass [12, 17] | Plant response rating, Barnyardgrass [12, 18]
10: Foxtail, Giant plant response rating [3, 14] | Morningglory plant response rating [4, 13] | Morningglory plant response rating [4, 14]

COc1nn(-c2ccc(C(F)(F)F)cc2)nc1Cn1cnc(C(F)(F)F)n1 [Compound 18]
30: Plant response rating, Barnyardgrass [1, 16] | Foxtail, Giant plant response rating [3, 13] | Plant response rating, Velvetleaf [6, 16] | Wheat plant response rating [7, 14] | Corn plant response rating [8, 14]
80: Crabgrass, Large plant response rating [2, 14] | Plant response rating, Foxtail, Giant [3, 15] | Morningglory plant response rating [4, 13] | Plant response rating, Pigweed [5, 15] | Velvetleaf plant response rating [6, 14]
40: Plant response rating, Sedge, Umbrella [10, 19]
70: Foxtail, Giant plant response rating [3, 14] | Velvetleaf plant response rating [6, 13]
20: Plant response rating, Barnyardgrass [1, 15] | Plant response rating, Velvetleaf [6, 15] | Wheat plant response rating [7, 13] | Corn plant response rating [8, 13]
65: Plant response rating, Sedge, Umbrella [10, 18]
50: Barnyardgrass plant response rating [1, 13] | Plant response rating, Morningglory [4, 16]
60: Barnyardgrass plant response rating [1, 14] | Crabgrass, Large plant response rating [2, 13]
100: Pigweed plant response rating [5, 13] | Pigweed plant response rating [5, 14] | Plant response rating, Pigweed [5, 16]
0: Plant response rating, Wheat [7, 15] | Plant response rating, Wheat [7, 16] | Plant response rating, Corn [8, 15] | Plant response rating, Corn [8, 16] | Plant response rating, Rice [9, 17] | Plant response rating, Rice [9, 19] | Plant response rating, Rice [9, 18] | Plant response rating, Rice ([9]; Flood, 31 g ai/ha) | Plant response rating, Sedge, Umbrella [10, 17] | Plant response rating, Sedge, Umbrella ([10]; Flood, 31 g ai/ha) | Plant response rating, Ducksalad [11, 17] | Plant response rating, Ducksalad [11, 19] | Plant response rating, Ducksalad [11, 18] | Plant response rating, Ducksalad ([11]; Flood, 31 g ai/ha) | Plant response rating, Barnyardgrass [12, 17] | Plant response rating, Barnyardgrass [12, 19] | Plant response rating, Barnyardgrass [12, 18] | Plant response rating, Barnyardgrass ([12]; Flood, 31 g ai/ha)
10: Plant response rating, Morningglory [4, 15]
90: Plant response rating, Crabgrass, Large [2, 15] | Plant response rating, Crabgrass, Large [2, 16] | Plant response rating, Foxtail, Giant [3, 16] | Morningglory plant response rating [4, 14]

Cc1nn(-c2ccc(F)cc2)nc1Cn1c(Cl)nc(C(F)(F)F)c1Cl [Compound 20]
0: Barnyardgrass plant response rating [1, 13] | Barnyardgrass plant response rating [1, 14] | Plant response rating, Barnyardgrass [1, 15] | Plant response rating, Barnyardgrass [1, 16] | Crabgrass, Large plant response rating [2, 13] | Plant response rating, Crabgrass, Large [2, 15] | Plant response rating, Crabgrass, Large [2, 16] | Foxtail, Giant plant response rating [3, 13] | Plant response rating, Foxtail, Giant [3, 15] | Plant response rating, Foxtail, Giant [3, 16] | Morningglory plant response rating [4, 13] | Plant response rating, Morningglory [4, 15] | Plant response rating, Morningglory [4, 16] | Pigweed plant response rating [5, 13] | Plant response rating, Pigweed [5, 15] | Plant response rating, Pigweed [5, 16] | Velvetleaf plant response rating [6, 13] | Plant response rating, Velvetleaf [6, 15] | Plant response rating, Velvetleaf [6, 16] | Wheat plant response rating [7, 13] | Wheat plant response rating [7, 14] | Plant response rating, Wheat [7, 15] | Plant response rating, Wheat [7, 16] | Corn plant response rating [8, 13] | Plant response rating, Corn [8, 15] | Plant response rating, Corn [8, 16] | Plant response rating, Rice [9, 17] | Plant response rating, Rice [9, 19] | Plant response rating, Rice [9, 18] | Plant response rating, Rice ([9]; Flood, 31 g ai/ha) | Plant response rating, Sedge, Umbrella [10, 17] | Plant response rating, Sedge, Umbrella [10, 19] | Plant response rating, Sedge, Umbrella [10, 18] | Plant response rating, Sedge, Umbrella ([10]; Flood, 31 g ai/ha) | Plant response rating, Ducksalad [11, 17] | Plant response rating, Ducksalad [11, 19] | Plant response rating, Ducksalad [11, 18] | Plant response rating, Ducksalad ([11]; Flood, 31 g ai/ha) | Plant response rating, Barnyardgrass [12, 17] | Plant response rating, Barnyardgrass [12, 19] | Plant response rating, Barnyardgrass [12, 18] | Plant response rating, Barnyardgrass ([12]; Flood, 31 g ai/ha)
10: Crabgrass, Large plant response rating [2, 14] | Foxtail, Giant plant response rating [3, 14] | Morningglory plant response rating [4, 14] | Corn plant response rating [8, 14]
20: Velvetleaf plant response rating [6, 14]
30: Pigweed plant response rating [5, 14]
